Read-outs that look alike come from different tables or passages of the source. Where a SMILES comes first, the peptide text is derived from it. [ ]: non-standard residue; d: D form. The star is where a group is joined. Ala(cPent) = N[C@@H](CC1CCCC1)C(=O)O; Benzoyl(4-OMe) = COc1ccc(C(=O)*)cc1
Target: T1, APC (303–739) (Homo sapiens, UniProt P25054)
T1 sequence (P25054 303-739): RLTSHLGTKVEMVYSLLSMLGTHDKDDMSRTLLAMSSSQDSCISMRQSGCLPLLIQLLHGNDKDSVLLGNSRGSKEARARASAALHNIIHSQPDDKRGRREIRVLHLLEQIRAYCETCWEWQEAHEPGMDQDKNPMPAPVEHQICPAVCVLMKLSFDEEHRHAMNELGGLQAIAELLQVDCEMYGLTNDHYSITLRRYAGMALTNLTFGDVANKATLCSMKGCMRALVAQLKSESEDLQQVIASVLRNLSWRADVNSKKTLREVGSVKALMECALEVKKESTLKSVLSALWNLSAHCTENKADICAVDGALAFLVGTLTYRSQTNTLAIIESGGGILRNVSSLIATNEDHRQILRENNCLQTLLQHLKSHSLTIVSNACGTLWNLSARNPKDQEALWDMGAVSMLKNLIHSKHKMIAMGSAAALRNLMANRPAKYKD
Assay: FP competitive assay using tracer 7
Format: binding
Details: for IC50: tracer 7
How it was run: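 Fluorescence polarization competition: APC (303–739) in 50 mM HEPES pH 7.5, 300 mM NaCl, 1 mM EDTA, 1 mM DTT, preincubated 1 h at room temperature with serially diluted peptides. FITC tracer 7 then added (400 nM stock) and FP read after 1.5 h at room temperature; IC50 by nonlinear regression, triplicates.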

[1] = Conc. 4 μM, individual repeats, Fig3b

inhibition at 0.001 µM (Conc. 0.001 μM, individual repeats, Fig3b, read-out: %inhibition): 1.6%
%inhibition (Conc. 0.002 μM, individual repeats, Fig3b): 2.6%
inhibition at 0.002 µM (Conc. 0.002 μM, individual repeats, Fig3b, read-out: %inhibition): 2.9%
%inhibition (Conc. 0.0039 μM, individual repeats, Fig3b): 5.4%
inhibition at 0.0039 µM (Conc. 0.0039 μM, individual repeats, Fig3b, read-out: %inhibition): 4.1%
inhibition at 0.006 µM (Conc. 0.006 μM, individual repeats, Fig3b, read-out: %inhibition): 4.4%
%inhibition (Conc. 0.0078 μM, individual repeats, Fig3b): 13.3%
inhibition at 0.0078 µM (Conc. 0.0078 μM, individual repeats, Fig3b, read-out: %inhibition): 8.8%
inhibition at 0.012 µM (Conc. 0.012 μM, individual repeats, Fig3b, read-out: %inhibition): 16.9%
%inhibition (Conc. 0.0156 μM, individual repeats, Fig3b): 35%
inhibition at 0.0156 µM (Conc. 0.0156 μM, individual repeats, Fig3b, read-out: %inhibition): 24%
inhibition at 0.024 µM (Conc. 0.024 μM, individual repeats, Fig3b, read-out: %inhibition): 38.4%
%inhibition (Conc. 0.0313 μM, individual repeats, Fig3b): 59%
inhibition at 0.0313 µM (Conc. 0.0313 μM, individual repeats, Fig3b, read-out: %inhibition): 51.7%
inhibition at 0.049 µM (Conc. 0.049 μM, individual repeats, Fig3b, read-out: %inhibition): 60.2%
%inhibition (Conc. 0.0625 μM, individual repeats, Fig3b): 74.1%
inhibition at 0.0625 µM (Conc. 0.0625 μM, individual repeats, Fig3b, read-out: %inhibition): 71.7%
inhibition at 0.098 µM (Conc. 0.098 μM, individual repeats, Fig3b, read-out: %inhibition): 77.7%
%inhibition (Conc. 0.125 μM, individual repeats, Fig3b): 86.1%
inhibition at 0.125 µM (Conc. 0.125 μM, individual repeats, Fig3b, read-out: %inhibition): 85.5%
inhibition at 0.195 µM (Conc. 0.195 μM, individual repeats, Fig3b, read-out: %inhibition): 89%
%inhibition (Conc. 0.25 μM, individual repeats, Fig3b): 91.7%
inhibition at 0.25 µM (Conc. 0.25 μM, individual repeats, Fig3b, read-out: %inhibition): 92.8%
inhibition at 0.391 µM (Conc. 0.391 μM, individual repeats, Fig3b, read-out: %inhibition): 94.2%
%inhibition (Conc. 0.5 μM, individual repeats, Fig3b): 95.8%
inhibition at 0.5 µM (Conc. 0.5 μM, individual repeats, Fig3b, read-out: %inhibition): 96.7%
inhibition at 0.781 µM (Conc. 0.781 μM, individual repeats, Fig3b, read-out: %inhibition): 97.3%
%inhibition (Conc. 1 μM, individual repeats, Fig3b): 97.7%
inhibition at 1 µM (Conc. 1 μM, individual repeats, Fig3b, read-out: %inhibition): 98.4%
inhibition at 1.563 µM (Conc. 1.563 μM, individual repeats, Fig3b, read-out: %inhibition): 98.1%
inhibition at 2 µM (Conc. 2 μM, individual repeats, Fig3b, read-out: %inhibition): 99.3%
inhibition at 3.125 µM (Conc. 3.125 μM, individual repeats, Fig3b, read-out: %inhibition): 98.9%
%inhibition [1]: 98.8%
inhibition at 4 µM [1]: 99%
inhibition at 6.25 µM (Conc. 6.25 μM, individual repeats, Fig3b, read-out: %inhibition): 99.5%
inhibition at 8 µM (Conc. 8 μM, individual repeats, Fig3b): 99%
inhibition at 12.5 µM (Conc. 12.5 μM, individual repeats, Fig3b, read-out: %inhibition): 97.6%
inhibition at 25 µM (Conc. 25 μM, individual repeats, Fig3b, read-out: %inhibition): 97.6%
inhibition at 50 µM (Conc. 50 μM, individual repeats, Fig3b, read-out: %inhibition): 97.6%
mean (FP signal, FigS5) (Repeat 1, Conc. 0.006 μM): 284.3
mean (FP signal, FigS5) (Repeat 1, Conc. 0.012 μM): 253.5
mean (FP signal, FigS5) (Repeat 1, Conc. 0.024 μM): 200.3
mean (FP signal, FigS5) (Repeat 1, Conc. 0.049 μM): 146.3
mean (FP signal, FigS5) (Repeat 1, Conc. 0.098 μM): 103
mean (FP signal, FigS5) (Repeat 1, Conc. 0.195 μM): 75
mean (FP signal, FigS5) (Repeat 1, Conc. 0.391 μM): 62
mean (FP signal, FigS5) (Repeat 1, Conc. 0.781 μM): 54.3
mean (FP signal, FigS5) (Repeat 1, Conc. 1.563 μM): 52.3
mean (FP signal, FigS5) (Repeat 1, Conc. 3.125 μM): 50.3
mean (FP signal, FigS5) (Repeat 1, Conc. 6.25 μM): 49
mean (FP signal, FigS5) (Repeat 1, Conc. 12.5 μM): 53.7
mean (FP signal, FigS5) (Repeat 1, Conc. 25 μM): 53.7
mean (FP signal, FigS5) (Repeat 1, Conc. 50 μM): 53.7
mean (FP signal, FigS5) (Repeat 2, Conc. 0.001 μM): 301
mean (FP signal, FigS5) (Repeat 2, Conc. 0.002 μM): 297.7
mean (FP signal, FigS5) (Repeat 2, Conc. 0.0039 μM): 294.7
mean (FP signal, FigS5) (Repeat 2, Conc. 0.0078 μM): 282.7
mean (FP signal, FigS5) (Repeat 2, Conc. 0.0156 μM): 244
mean (FP signal, FigS5) (Repeat 2, Conc. 0.0313 μM): 173.3
mean (FP signal, FigS5) (Repeat 2, Conc. 0.0625 μM): 122.3
mean (FP signal, FigS5) (Repeat 2, Conc. 0.125 μM): 87.3
mean (FP signal, FigS5) (Repeat 2, Conc. 0.25 μM): 68.7
mean (FP signal, FigS5) (Repeat 2, Conc. 0.5 μM): 58.7
mean (FP signal, FigS5) (Repeat 2, Conc. 1 μM): 54.3
mean (FP signal, FigS5) (Repeat 2, Conc. 2 μM): 52
mean (FP signal, FigS5) (Repeat 2, Conc. 4 μM): 53
mean (FP signal, FigS5) (Repeat 2, Conc. 8 μM): 53
mean (FP signal, FigS5) (Repeat 3, Conc. 0.001 μM): 292.7
mean (FP signal, FigS5) (Repeat 3, Conc. 0.002 μM): 290.3
mean (FP signal, FigS5) (Repeat 3, Conc. 0.0039 μM): 283.3
mean (FP signal, FigS5) (Repeat 3, Conc. 0.0078 μM): 264
mean (FP signal, FigS5) (Repeat 3, Conc. 0.0156 μM): 211
mean (FP signal, FigS5) (Repeat 3, Conc. 0.0313 μM): 152
mean (FP signal, FigS5) (Repeat 3, Conc. 0.0625 μM): 115
mean (FP signal, FigS5) (Repeat 3, Conc. 0.125 μM): 85.7
mean (FP signal, FigS5) (Repeat 3, Conc. 0.25 μM): 72
mean (FP signal, FigS5) (Repeat 3, Conc. 0.5 μM): 62
mean (FP signal, FigS5) (Repeat 3, Conc. 1 μM): 57.3
mean (FP signal, FigS5) (Repeat 3, Conc. 2 μM): 56.3
mean (FP signal, FigS5) (Repeat 3, Conc. 4 μM): 54.7
mean (FP signal, FigS5) (Repeat 3, Conc. 8 μM): 53.3
IC50 (mean of three repeats, read-out: IC50 mean): 25.1 nM
IC50 (read-out: IC50 Repeat 1): 23 nM
IC50 (read-out: IC50 Repeat 2): 29.6 nM
IC50 (read-out: IC50 Repeat 3): 22.7 nM
SMILES: COc1ccc(C(=O)N[C@@H](C)C(=O)NCC(=O)N[C@@H](CCC(=O)O)C(=O)N[C@@H](CO)C(=O)N[C@@H](CC2CCCC2)C(=O)N[C@@H](Cc2ccc(O)cc2)C(=O)N[C@@H](CCC(=O)O)C(N)=O)cc1 [MAI-519] ({Benzoyl(4-OMe)}-AGES[Ala(cPent)]YE-NH2)
